Data published in patent US10093678B2, “Azaspiro derivatives as TRPM8 antagonists” (RaQualia Pharma Inc., priority 2014, dated 2018).

Molecular target: T1, human TRPM8 (Homo sapiens, UniProt Q7Z2W7)
T1 construct: expressed in transfected cells; host or cells: HEK293
Test: Menthol-induced Ca2+ influx in HEK293 cells stably expressing human TRPM8
Format: cell-based
Settings: 30 microM menthol-induced Ca2+ influx, read-out: IC50 against TRPM8
Description: Measurement of the Menthol-Induced Ca^2+ Influx in HEK293 Cells Stably Expressing Human TRPM8
A cell-based Ca^2+ influx assay using HEK293 cells stably expressing human TRPM8 is used to identify the activity of compounds.
HEK293 cells stably expressing human TRPM8 are grown in T175 flasks at 37° C. in a 5% CO2 humidified incubator to about 80% confluence. Media composition consists of Dulbecco's Modified Eagle Medium (high glucose), 10% fetal calf serum (FCS), 100 units/mLPenicillin, 100 microg/mL Streptomycin and 600 microg/mL Geneticine. At 24 hours prior to assay, cells are seeded in poly-D-lysine coated 384-well plates (BD FALCON) at a density of 30,000 cells per well in culture medium and grown overnight in 5% CO2 at 37° C. On the assay day, growth media is removed and cells are loaded with 0.5 microM Fluo4-AM (Molecular Probes) and 0.005% Pluronic F-127 dissolved in assay buffer (Hank's balanced salt solution (HBSS), 19.4 mM HEPES pH7.4, 2.5 mM Probenecid) for 1 hour at room temperature. After washing with assay buffer, the cells are preincubated with various concentrations of the compounds for 5 min. The changes in intracellular calcium concentration by addition of 30 microM menthol are monitored by the cell imaging technology by Hamamatsu Photonics Functional Drug Screening System (FDSS).
The IC50 values for compounds of the present invention are determined from 11-point dose-response studies. Curves are generated using the average of duplicate wells for each data point. Finally, the IC50 values are calculated with the best-fit dose curve determined by XLfit (ID Business Solutions Ltd.).

T1 sequence (Q7Z2W7 whole entry): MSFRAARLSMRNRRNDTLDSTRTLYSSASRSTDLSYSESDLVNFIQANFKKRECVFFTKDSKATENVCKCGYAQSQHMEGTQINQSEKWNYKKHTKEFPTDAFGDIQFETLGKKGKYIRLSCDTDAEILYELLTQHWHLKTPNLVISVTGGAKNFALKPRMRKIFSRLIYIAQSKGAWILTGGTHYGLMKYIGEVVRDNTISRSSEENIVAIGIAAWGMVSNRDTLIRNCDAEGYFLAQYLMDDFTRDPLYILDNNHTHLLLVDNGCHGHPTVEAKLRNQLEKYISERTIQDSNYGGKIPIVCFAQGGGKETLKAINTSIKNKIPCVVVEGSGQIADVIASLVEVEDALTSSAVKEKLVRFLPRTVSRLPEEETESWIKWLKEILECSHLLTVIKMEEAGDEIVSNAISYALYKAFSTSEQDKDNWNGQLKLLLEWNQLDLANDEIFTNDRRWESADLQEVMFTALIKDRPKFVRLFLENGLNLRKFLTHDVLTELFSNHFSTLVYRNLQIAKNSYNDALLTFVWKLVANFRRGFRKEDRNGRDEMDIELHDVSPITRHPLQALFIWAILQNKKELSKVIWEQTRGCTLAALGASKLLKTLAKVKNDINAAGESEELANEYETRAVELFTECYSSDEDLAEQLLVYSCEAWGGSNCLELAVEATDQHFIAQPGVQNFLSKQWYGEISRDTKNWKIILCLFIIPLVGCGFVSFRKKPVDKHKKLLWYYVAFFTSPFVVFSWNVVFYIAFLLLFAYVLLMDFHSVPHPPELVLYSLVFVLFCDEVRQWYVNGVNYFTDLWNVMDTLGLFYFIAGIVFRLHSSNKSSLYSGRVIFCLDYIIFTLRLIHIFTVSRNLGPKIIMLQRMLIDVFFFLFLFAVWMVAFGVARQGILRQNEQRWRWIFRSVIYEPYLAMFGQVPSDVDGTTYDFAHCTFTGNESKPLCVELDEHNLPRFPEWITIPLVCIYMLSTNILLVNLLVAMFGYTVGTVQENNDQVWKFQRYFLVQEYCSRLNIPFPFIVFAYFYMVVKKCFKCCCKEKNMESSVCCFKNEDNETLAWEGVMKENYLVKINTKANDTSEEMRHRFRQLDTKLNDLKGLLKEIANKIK

SMILES	IC50 [nM]
O=C(CN1C(=O)NC2(CCC(F)(F)CC2)C1=O)c1ccc(-c2n[nH]c3ccccc23)cc1 [Example 6-32]	< 100
Cc1cccc(-n2c(C)nc(C(=O)CN3CC4(CCC(F)(F)CC4)OC3=O)c2C)c1 [Example 2-17]	< 500
O=C(CN1C(=O)NC2(CCC(F)(F)CC2)C1=O)c1ccc(-c2cncc3[nH]ncc23)cc1 [Example 6-4]	< 10
O=C(CN1C(=O)NC2(CCC(F)(F)CC2)C1=O)c1ccc(-c2cnccc2CO)cc1 [Example 6-10]	< 100
Cc1ccccc1-n1ncc(C(=O)CN2C(=O)NC3(CCC(F)(F)CC3)C2=O)c1C [Example 4-12]	< 500
Cc1ncccc1-c1ccc(C(=O)CN2C(=O)NC3(CCCCC3)C2=O)cc1 [Example 7-1]	< 10
O=C(CN1C(=O)NC2(CCC(F)(F)CC2)C1=O)c1ccc(Oc2ccccc2)nc1 [Example 5-23]	< 500
Cc1nc(C(=O)CN2C(=O)NC3(CCCCC3)C2=O)c(C)n1-c1ccccc1 [Example 2-1]	< 100
Cc1nc(C(=O)CN2C(=O)NC3(CCC(F)(F)CC3)C2=O)c(C)n1-c1ccccc1 [Example 2-2]	< 100
Nc1nccnc1-c1ccc(C(=O)CN2C(=O)NC3(CCC(F)(F)CC3)C2=O)cc1 [Example 6-117]	< 500
O=C(CN1C(=O)NC2(CCC(F)(F)CC2)C1=O)c1ccc(-c2cccc3c2CC(O)C3)cc1 (stereo not shown) [Example 6-49]	< 500
Cn1c(-c2ccccc2)cnc1C(=O)CN1C(=O)NC2(CCC(F)(F)CC2)C1=O [Example 4-4]	< 100
Nc1cnccc1-c1ccc(C(=O)CN2C(=O)NC3(CCC(F)(F)CC3)C2=O)cc1 [Example 6-113]	< 500
N#Cc1cccc(-c2ccc(C(=O)CN3C(=O)NC4(CCC(F)(F)CC4)C3=O)cc2)n1 [Example 6-26]	< 100
O=C(CN1C(=O)NC2(CCC(F)(F)CC2)C1=O)c1ccc(-c2nccc3cn[nH]c23)cc1 [Example 6-62]	< 500
N#Cc1ncccc1-c1ccc(C(=O)CN2CC3(CCC(F)(F)CC3)OC2=O)cc1 [Example 7-20]	< 500
Cc1ccncc1-c1ccc(C(=O)CN2C(=O)NC3(CCCCC3)C2=O)cc1 [Example 7-2]	< 100

SMILES	IC50 [nM]
O=C(CN1C(=O)NC2(CCCCC2)C1=O)c1ccc(-c2cccnc2CO)cc1 [Example 7-11]	< 100
Cc1cc(-n2c(C)cc(C(=O)CN3C(=O)OC4(CCC(C(F)(F)F)CC4)C3=O)c2C)no1 (stereo not shown) [Example 1-5]	< 500
N#Cc1nccnc1-c1ccc(C(=O)CN2C(=O)NC3(CCC(F)(F)CC3)C2=O)c(F)c1 [Example 8-8]	< 100
Cc1cc(-n2c(C)cc(C(=O)CN3C(=O)NC4(CCC(F)(F)CC4)C3=O)c2C)on1 [Example 3-1]	< 100
NCc1nc2ccccc2n1-c1ccc(C(=O)CN2C(=O)NC3(CCC(F)(F)CC3)C2=O)cc1 [Example 5-16, 3-(2-(4-(2-(aminomethyl)-1H-benzo[d]imidazol-1-yl)phenyl)-2-oxoethyl)-8,8-difluoro-1,3-diazaspiro[4.5]decane-2,4-dione]	< 500
O=C(CN1C(=O)NC2(CCC(F)(F)CC2)C1=O)c1ccc(-c2cnccc2CO)c(F)c1 [Example 8-2]	< 100
O=C(CN1C(=O)NC2(CCC(F)(F)CC2)C1=O)c1ccc(-c2cnccc2C(F)(F)F)cc1 [Example 6-41]	< 100
COC(=O)c1cccc(-n2c(C)cc(C(=O)CN3C(=O)NC4(CCCCC4)C3=O)c2C)c1 [Example 3-8]	< 100
O=C(CN1C(=O)NC2(CCCCC2)C1=O)c1ccc(Oc2ccccc2)nc1 [Example 5-24]	< 500
Cc1ccnnc1-c1ccc(C(=O)CN2C(=O)NC3(CCCCCC3)C2=O)cc1 [Example 5-26]	< 100
N#Cc1cccc(-c2ccc(C(=O)CN3C(=O)OC4(CCC(F)(F)CC4)C3=O)cc2)n1 [Example 7-25]	< 100
O=C(CN1C(=O)NC2(CCC(F)(F)CC2)C1=O)c1ccc(Oc2ncccn2)cc1 [Example 5-21]	< 500
O=C(CN1C(=O)NC2(CCC(F)(F)CC2)C1=O)c1ccc(-n2cnc3cccnc32)cc1 [Example 5-9]	< 10
Cc1nc(C(=O)CN2C(=O)NC3(CCCCC3)C2=O)c(C)n1-c1cccc(Cl)c1 [Example 2-15]	< 100
Cc1cc(C(=O)CN2C(=O)NC3(CCC(F)(F)CC3)C2=O)c(C)n1-c1ccccc1 [Example 3-4]	< 100
N#Cc1ccncc1-c1ccc(C(=O)CN2C(=O)NC3(CCC(F)(F)CC3)C2=O)cc1 [Example 6-16]	< 100

Next, values leading:

IC50 [nM]	SMILES
< 100	Cc1cc(C(=O)CN2C(=O)NC3(CCC(F)(F)CC3)C2=O)ccc1-c1cccc(C(N)=O)c1 [Example 13-13]
< 100	COc1cccc(-c2c(C)cc(C(=O)CN3C(=O)NC4(CCC(F)(F)CC4)C3=O)n2C)c1 [Example 16-14]
< 100	CN(c1ccc(C(=O)CN2C(=O)NC3(CCC(F)(F)CC3)C2=O)cc1)c1ccccn1 [Example 19-16]
< 10	Cc1ccncc1-c1sc(C(=O)CN2C(=O)NC3(CCC(F)(F)CC3)C2=O)cc1C [Example 14-5]
< 100	O=C(CN1C(=O)NC2(CCC(F)(F)CC2)C1=O)c1ccc(-c2ccnc3ccccc23)nc1 [Example 9-18]
< 100	O=C(CN1C(=O)NC2(CCCCC2)C1=O)c1ccc(-c2ccccc2CO)nc1 [Example 9-5]
< 500	Cc1ccc2nc(C)n(-c3ccc(C(=O)CN4CC5(CCC(F)(F)CC5)OC4=O)cc3)c2n1 [Example 22-6]
< 100	Cc1nc2ccccc2n1-c1ccc(C(=O)CN2CC3(CCC(F)(F)CC3)OC2=O)cc1 [Example 22-3]
< 100	Cn1c(C(=O)CN2C(=O)NC3(CCC(F)(F)CC3)C2=O)nc(C2CC2)c1-c1ccccc1 [Example 17-4]
< 100	Cc1cc(C(=O)CN2C(=O)NC3(CCC(F)(F)CC3)C2=O)n(C)c1-c1cc(F)cc(F)c1 [Example 16-9]
< 100	Cc1cc2ccccc2n1-c1ccc(C(=O)CN2C(=O)NC3(CCC(F)(F)CC3)C2=O)cn1 [Example 19-12]
< 100	O=C(CN1C(=O)NC2(CCC(F)(F)CC2)C1=O)c1ccc(-c2ccc3ccccc3n2)cc1 [Example 13-47]
< 100	N#Cc1cccc(-c2ccc(C(=O)CN3C(=O)NC4(CCCCC4)C3=O)cn2)c1 [Example 9-9]
< 100	Cc1cc(C(=O)CN2C(=O)NC3(CCC(F)(F)CC3)C2=O)ccc1-c1cccc2ccncc12 [Example 13-15]
< 10	Cc1ccccc1-c1ccc(C(=O)CN2C(=O)NC3(CCC(F)(F)CC3)C2=O)cn1 [Example 9-11]
< 100	CN(c1ccccn1)c1ccc(C(=O)CN2C(=O)NC3(CCC(F)(F)CC3)C2=O)cn1 [Example 19-6]

IC50 [nM]	SMILES
< 500	O=C(CN1C(=O)NC2(CCC(F)(F)CC2)C1=O)c1ccc(-n2cnc3cncnc32)cc1 [Example 19-34]
< 100	COc1ccncc1-c1ccc(C(=O)CN2C(=O)NC3(CCC(F)(F)CC3)C2=O)cc1 [Example 13-39]
< 500	O=C(CN1C(=O)NC2(CCCCC2)C1=O)c1ccc(Oc2cccnc2)nc1 [Example 20-2]
< 500	N#Cc1cccc(-c2c(F)cc(C(=O)CN3C(=O)NC4(CCC(F)(F)CC4)C3=O)cc2F)c1 [Example 13-33]
< 100	NC(=O)c1cccc(-c2ccc(C(=O)CN3C(=O)NC4(CCC(F)(F)CC4)C3=O)cc2Cl)c1 [Example 13-28]
< 100	N#Cc1ccnnc1Oc1ccc(C(=O)CN2C(=O)NC3(CCC(F)(F)CC3)C2=O)cc1 [Example 21-12, 3-(4-(2-(8,8-difluoro-2,4-dioxo-1,3-diazaspiro[4.5]decan-3-yl)acetyl)phenoxy)pyridazine-4-carbonitrile]
< 100	Cc1ccncc1-c1c(C)sc(C(=O)CN2C(=O)NC3(CCC(F)(F)CC3)C2=O)c1C [Example 15-4]
< 500	Cc1nc(C(=O)CN2C(=O)NC3(CCC(F)(F)CC3)C2=O)sc1-c1cccc2c1CNC2=O [Example 18-12]
< 500	Cc1nc(C(=O)CN2C(=O)NC3(CCC(F)(F)CC3)C2=O)sc1-c1cccc(C(N)=O)c1 [Example 18-7]
< 500	O=C(CN1C(=O)NC2(CCC(F)(F)CC2)C1=O)c1ccc(N2C(=O)CCc3ccccc32)cc1 [Example 19-27]
< 100	O=C(CN1C(=O)NC2(CCC(F)(F)CC2)C1=O)c1ccc(-c2cccnc2)cc1 [Example 13-48]
< 100	O=C(CN1C(=O)NC2(CCC(F)(F)CC2)C1=O)c1ccc(-c2ccccc2CO)c(Cl)c1 [Example 13-27]
< 100	Cc1cccc(N(C)c2ccc(C(=O)CN3C(=O)NC4(CCCCC4)C3=O)cn2)c1 [Example 19-1, 3-(2-(6-(methyl(m-tolyl)amino)pyridin-3-yl)-2-oxoethyl)-1,3-diazaspiro[4.5]decane-2,4-dione]
< 100	O=C(CN1C(=O)NC2(CCC(F)(F)CC2)C1=O)c1ccc(Oc2cccnc2)cc1 [Example 21-14, 8,8-difluoro-3-(2-oxo-2-(4-(pyridin-3-yloxy)phenyl)ethyl)-1,3-diazaspiro[4.5]decane-2,4-dione]
< 100	Cc1c(C(=O)CN2C(=O)NC3(CCC(F)(F)CC3)C2=O)cn(C)c1-c1cccc2ccncc12 [Example 16-27]
